Experimental findings from PMC3154012 (Journal of the American Chemical Society, 2011) are described below.

Structures are written as SMILES.

In assay [1] the target is T1, Mn-BM3h (wild-type cytochrome P450 BM3 heme domain) (Priestia megaterium, UniProt P14779).
T1 sequence (P14779 2-464 limits assumed): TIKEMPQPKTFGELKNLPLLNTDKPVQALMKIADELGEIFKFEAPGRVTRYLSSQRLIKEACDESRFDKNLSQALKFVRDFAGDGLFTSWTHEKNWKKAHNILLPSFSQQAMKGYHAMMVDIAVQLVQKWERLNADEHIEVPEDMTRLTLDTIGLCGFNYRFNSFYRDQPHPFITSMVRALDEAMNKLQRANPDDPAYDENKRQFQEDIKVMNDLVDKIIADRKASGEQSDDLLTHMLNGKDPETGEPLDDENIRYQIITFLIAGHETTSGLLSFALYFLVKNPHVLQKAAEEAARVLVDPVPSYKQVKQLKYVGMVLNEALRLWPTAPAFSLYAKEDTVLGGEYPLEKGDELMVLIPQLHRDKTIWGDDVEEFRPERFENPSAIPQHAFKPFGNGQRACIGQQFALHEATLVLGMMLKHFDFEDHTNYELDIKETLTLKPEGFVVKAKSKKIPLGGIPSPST
As to the kind of experiment: optical absorbance titration. It is filed as binding.

Assay [2] addresses Mn-C1634 (thermostable chimeric P450 heme domain C1634). As to the kind of experiment: optical absorbance titration, two-component binding fit. More on the design: species or system Priestia megaterium; Bacillus subtilis. Conditions: Mn(III)-PPIX in place of heme; PBS; 5 μM protein.

As a reminder, the Kd is the constant that tells how readily two partners part at equilibrium. In the case of `CCCCC/C=C\C/C=C\C/C=C\C/C=C\CCCC(=O)O` [AA, arachidonic acid], the results for the equilibrium dissociation constant (Kd) in assay [1] and in assay [2] were 0.7 ± 0.5 µM and 2.5 ± 0.7 µM, respectively.
